Experimental data: patent US20110207691A1, “COBALAMIN COMPOSITIONS FOR THE TREATMENT OF CANCER” (BEBAAS, INC., priority 2006, published 2011)
“And” between values parts separate entries of the source, which are not always exact repeats. Equal entries are not always repeated.

Tests used:
[1] = system: BD-MB231 breast cancer cells; experiment: Cell survival count after treatment, BD-MB231 breast cancer cells; format: cell-based; settings: cultures grown for 48 hours, then counted
Procedure: Cell cultures were grown and maintained using standard protocols for the respective cell line. Suitable culturing methods are described in, for example, Cancer Cell Culture: Method and Protocols (Methods in Molecular Medicine) Langdon (Ed) Humana Press, 2003 and General Techniques of Cell Culture (Handbooks in Practical Animal Cell Biology) Harrison and Rae, Cambridge University Press, 2005. Cultures were grown for 48 hours and subsequently counted to determine the number surviving after treatment with hydroxycobalamin, methylcobalamin or adenosylcobalamin and the aforementioned cobalamin analogs in combination with a nitric oxide-cobalamin complex. Determination of cell survival can be accomplished using, for example, a hemocytometer and Trypan Blue staining. […] Total number of cells can be determined living and dead cells can be determined and treatments compared.

WM9 melanoma cells = settings: cited from earlier work

Compound	number of surviving cells (mean) [1]	effect on WM9 melanoma cells (WM9 melanoma cells)
C/C1=C2/[N-][C@H]([C@H](CC(N)=O)[C@@]2(C)CCC(=O)NC[C@@H](C)OP(=O)([O-])O[C@H]2[C@@H](O)[C@@H](n3cnc4cc(C)c(C)cc43)O[C@@H]2CO)[C@]2(C)N=C(/C(C)=C3N=C(/C=C4N=C1[C@@H](CCC(N)=O)C\4(C)C)[C@@H](CCC(N)=O)[C@]\3(C)CC(N)=O)[C@@H](CCC(N)=O)[C@]2(C)CC(N)=O.[Co+3].[OH-] [hydroxycobalamin]	472 and 729 and 728	
nitrosylcobalamin		anti-proliferative effect
